The source of these data is US20110082130A1 (LIGAND PHARMACEUTICALS, INC., priority 2006, published 2011).

T1 sequence (Q9Y5N1 with tags, fused parts or gaps): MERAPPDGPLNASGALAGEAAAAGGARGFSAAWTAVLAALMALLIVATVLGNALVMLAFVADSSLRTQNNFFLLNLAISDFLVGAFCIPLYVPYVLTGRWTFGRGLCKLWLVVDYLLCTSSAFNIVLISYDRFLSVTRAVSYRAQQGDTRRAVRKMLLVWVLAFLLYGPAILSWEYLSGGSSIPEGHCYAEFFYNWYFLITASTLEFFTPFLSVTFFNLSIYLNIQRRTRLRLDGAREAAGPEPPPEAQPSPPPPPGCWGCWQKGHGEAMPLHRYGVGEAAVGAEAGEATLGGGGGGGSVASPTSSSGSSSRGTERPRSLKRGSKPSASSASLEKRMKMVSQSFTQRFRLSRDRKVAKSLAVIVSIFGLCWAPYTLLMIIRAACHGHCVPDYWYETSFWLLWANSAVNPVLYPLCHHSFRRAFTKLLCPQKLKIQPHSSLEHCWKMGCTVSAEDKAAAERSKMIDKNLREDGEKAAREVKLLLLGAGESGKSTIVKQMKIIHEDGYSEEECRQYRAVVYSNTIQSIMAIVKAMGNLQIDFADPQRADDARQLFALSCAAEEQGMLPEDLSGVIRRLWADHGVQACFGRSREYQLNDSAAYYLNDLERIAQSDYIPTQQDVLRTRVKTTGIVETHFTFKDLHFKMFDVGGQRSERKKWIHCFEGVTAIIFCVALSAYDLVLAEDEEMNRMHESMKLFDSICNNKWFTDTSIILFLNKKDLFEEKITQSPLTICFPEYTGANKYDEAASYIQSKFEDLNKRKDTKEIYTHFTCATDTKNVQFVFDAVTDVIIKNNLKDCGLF

The first assay addresses T1, chimeric human H3 receptor (Homo sapiens, UniProt Q9Y5N1).
T1 construct: made in house; host or cells: Sf9 insect cells (baculovirus); P2 membrane preparation
Nature of the assay: Chimeric human H3 receptor GTP binding assay (agonist-stimulated GTP-gamma35S binding, Example 7). The following applies: Table I; P2 membranes of Sf9 cells, 1 μM histamine as agonist, Ki from IC50 by Cheng-Prusoff. The assay is classed as biochemical. An excerpt:
This Example illustrates a representative assay for evaluating agonist-stimulated GTP-gamma^35S binding (“GTP binding”) activity. […] This agonist-stimulated GTP binding activity can also be used to detect partial agonism mediated by antagonist compounds. A compound analyzed in this assay is referred to herein as a “test compound.”
Four independent baculoviral stocks (one directing the expression of the chimeric human H3 receptor and three directing the expression of each of the three subunits of a heterotrimeric G-protein) are used to infect a culture of Sf9 cells as described above. P2 membranes are prepared as described above, and agonist-stimulated GTP binding on the P2 membranes is assessed using histamine (Sigma Chemical Co., St. Louis, Mo.) as agonist in order to ascertain that the receptor/G-protein-alpha-beta-gamma combination(s) yield a functional response as measured by GTP binding. P2 membranes are resuspended by Dounce homogenization (tight pestle) in GTP binding assay buffer (50 mM Tris pH 7.4, 120 mM NaCl, 5 mM MgCl2, 2 mM EGTA, 1 mg/ml BSA, 0.2 mg/ml bacitracin, 0.02 mg/ml aprotinin, 0.01 mg/ml saponin, 10 μM GDP) and added to assay tubes at a concentration of 35 μg protein/reaction tube. After adding increasing doses of histamine at concentrations ranging from 10^−12 M to 10^−5 M, reactions are initiated by the addition of […] GTP-gamma^35S (PERKIN ELMER; Boston, Mass.) with a final assay volume of 0.20 ml. In competition experiments, non-radiolabeled test compounds are added to separate reactions at concentrations ranging from 10^−10 M to 10^−6 M along with 1 μM histamine to yield a final volume of 0.20 ml.
Neutral antagonists are antagonists that are substantially free of inherent agonist activity, and include those test compounds that reduce the histamine-stimulated GTP binding activity towards, but not below, baseline levels. In contrast, in the absence of added histamine, inverse agonists reduce the GTP binding activity of the receptor-containing membranes below baseline.
After a 60-min incubation at room temperature, reactions are terminated by vacuum filtration over WHATMAN GF/C filters (pre-soaked in wash buffer, 0.1% BSA) followed by washing with ice-cold wash buffer (50 mM Tris pH 7.4, 120 mM NaCl). The amount of receptor-bound (and thereby membrane-bound) GTP-gamma^35S is determined by measuring the filter-bound radioactivity, preferably by liquid scintillation spectrometry of the washed filters. Non-specific binding is determined in parallel assays including 10 μM unlabeled GTP-gammaS and typically represents less than 5 percent of total binding. Data is expressed as percent above basal (baseline). The results of GTP binding experiments are analyzed using SIGMAPLOT software (SPSS Inc., Chicago, Ill.). IC50 values are calculated by non-linear regression analysis of dose-response curves using Kaleidograph (Synergy Software, Reading, Pa.).
Alternatively the data is analyzed as follows. First, the average bound radioactivity from negative control wells (no agonist) is subtracted from the bound radioactivity detected for each of the other experimental wells. Second, average bound radioactivity is calculated for the positive control wells (agonist wells). Then, percent inhibition for each compound tested is calculated using the equation:
Calculated IC50 values are converted to K1 values by the Cheng-Prusoff correction (Cheng and Prusoff (1973) Biochem. Pharmacol. 22(23):3099-3108). Accordingly, the following equation: Ki=IC50/(1+[L]/EC50) is used, where [L] is the histamine concentration in the GTP binding assay, and EC50 is the concentration of histamine producing a 50% response, as determined by a dose-response analysis using concentrations of histamine ranging from 10^−10 M to 10^−6M. […]
(Binding of GTPγS marks nucleotide exchange on a G protein.)
Usually Ki stands for a dissociation constant, usually derived from enzyme kinetics or from competition with a known ligand. Consider `Cc1noc(C)c1-c1ccc2c(c1)CCN(CC(=O)N1CCN(C3CCC3)CC1)C2` [Compound 68, 2-[2-(4-cyclobutylpiperazin-1-yl)-2-oxoethyl]-6-(3,5-dimethylisoxazol-4-yl)-1,2,3,4-tetrahydroisoquinoline], for which the Ki is less than 1000 nM. Still for that read-out and setting: the result for `COc1ccc2c(c1)CCN(CC(=O)N1CCN(C3CCC3)CC1)CC2` [Compound 77, 3-[2-(4-cyclobutylpiperazin-1-yl)-2-oxoethyl]-7-methoxy-2,3,4,5-tetrahydro-1H-3-benzazepine] reads less than 1000 nM. Same read-out and setting: next, `O=C(CN1CCn2c(Br)cnc2C1)N1CCN(C2CCC2)CC1` [Compound 81, 3-bromo-7-[2-(4-cyclobutylpiperazin-1-yl)-2-oxoethyl]-5,6,7,8-tetrahydroimidazo[1,2-a]pyrazine]: less than 1000 nM; `O=C(CN1CCc2ncccc2C1)N1CCN(C2CCC2)CC1` [Compound 65, 6-[2-(4-cyclobutylpiperazin-1-yl)-2-oxoethyl]-5,6,7,8-tetrahydro-1,6-naphthyridine]: less than 1000 nM.

The assay is the same for the next values; noted with them: Table II "Ki", symbol *; assay of Example 7.
For the compound `COCCC1CCN(c2ccc3c(n2)CCN(CC(=O)N2CCN(C4CCC4)CC2)C3)CC1` [Compound 672, 6-[2-(4-cyclobutylpiperazin-1-yl)-2-oxoethyl]-2-[4-(2-methoxyethyl)piperidin-1-yl]-5,6,7,8-tetrahydro-1,6-naphthyridine], the Ki is less than 1000 nM. The same measure, in the same setting: the result for `COCCCNc1ccc2c(n1)CCN(CC(=O)N1CCN(C3CCC3)CC1)C2` [Compound 664, 6-[2-(4-cyclobutylpiperazin-1-yl)-2-oxoethyl]-N-(3-methoxypropyl)-5,6,7,8-tetrahydro-1,6-naphthyridin-2-amine] reads less than 1000 nM.

The assay is the same for the next values; noted with them: Table II; "*" = Ki in assay of Example 7 less than 1 micromolar.
`Cn1cc(-n2cc3c(n2)CCN(CC(=O)N2CCN(C4CCC4)CC2)C3)ccc1=O` [Compound 262, 5-{5-[2-(4-cyclobutylpiperazin-1-yl)-2-oxoethyl]-4,5,6,7-tetrahydro-2H-pyrazolo[4,3-c]pyridin-2-yl}-1-methylpyridin-2(1H)-one]: the Ki was less than 1000 nM. On to `N#Cc1cnn(-c2ccc3c(c2)CCN(CC(=O)N2CCN(C4CCC4)CC2)C3)c1` [Compound 244, 1-{2-[2-(4-cyclobutylpiperazin-1-yl)-2-oxoethyl]-1,2,3,4-tetrahydroisoquinolin-6-yl}-1H-pyrazole-4-carbonitrile], for which the inhibition constant Ki was less than 1000 nM. For the compound `CC(=O)c1ccc(-n2cc3c(n2)CCN(CC(=O)N2CCN(C4CCC4)CC2)C3)nn1` [Compound 202, 1-(6-{5-[2-(4-cyclobutylpiperazin-1-yl)-2-oxoethyl]-4,5,6,7-tetrahydro-2H-pyrazolo[4,3-c]pyridin-2-yl}pyridazin-3-yl)ethanone], the Ki was less than 1000 nM.

In the case of `Cn1cc(-c2ccc3c(c2)CCN(CC(=O)N2CCN(C4CCC4)CC2)C3)cn1` [Compound 127, 2-[2-(4-cyclobutylpiperazin-1-yl)-2-oxoethyl]-6-(1-methyl-1H-pyrazol-4-yl)1,2,3,4-tetrahydroisoquinoline], the Ki was less than 1000 nM. For `COc1ncc(-n2cc3c(n2)CCN(CC(=O)N2CCN(C4CCC4)CC2)C3)cn1` [Compound 256, 5-[2-(4-cyclobutylpiperazin-1-yl)-2-oxoethyl]-2-(2-methoxypyrimidin-5-yl)-4,5,6,7-tetrahydro-2H-pyrazolo[4,3-c]pyridine], the inhibition constant Ki was less than 1000 nM. On the same count and under the same terms, the result for `CC1(N2CCN(C(=O)CN3CCc4cc(-c5cncnc5)ccc4C3)CC2)CCC1` [Compound 169, 2-{2-[4-(1-methylcyclobutyl)piperazin-1-yl]-2-oxoethyl}-6-pyrimidin-5-yl-1,2,3,4-tetrahydroisoquinoline] reads less than 1000 nM. The same measure, in the same setting: the result for `O=C(CN1CCc2nccnc2C1)N1CCN(C2CCC2)CC1` [Compound 228, 6-[2-(4-cyclobutylpiperazin-1-yl)-2-oxoethyl]-5,6,7,8-tetrahydropyrido[3,4-b]pyrazine] reads less than 1000 nM; that for `CC1CN(c2ccc3c(n2)CCN(CC(=O)N2CCN4C(C)CCC[C@H]4C2)C3)CC(C)O1` (stereo in doubt) [Compound 179, 2-(2,6-dimethylmorpholin-4-yl)-6-[2-(6-methyloctahydro-2H-pyrido[1,2-a]pyrazin-2-yl)-2-oxoethyl]-5,6,7,8-tetrahydro-1,6-naphthyridine], less than 1000 nM; that for `O=C(CN1CCc2nc(N3CCC(F)C3)ccc2C1)N1CCN(C2CCC2)CC1` (stereo not shown) [Compound 225, 6-[2-(4-cyclobutylpiperazin-1-yl)-2-oxoethyl]-2-(3-fluoropyrrolidin-1-yl)-5,6,7,8-tetrahydro-1,6-naphthyridine], less than 1000 nM. On the same count and under the same terms, next, `CC(=O)c1ccc2c(c1)CCN(CC(=O)N1CCN(C3CCC3)CC1)CC2` [Compound 101, 1-{3-[2-(4-cyclobutylpiperazin-1-yl)-2-oxoethyl]-2,3,4,5-tetrahydro-1H-3-benzazepin-7-yl}ethanone]: less than 1000 nM; `COCCN(C)c1ccc2c(n1)CCN(CC(=O)N1CCN(C3CCC3)CC1)C2` [Compound 184, 6-[2-(4-cyclobutylpiperazin-1-yl)-2-oxoethyl]-N-(2-methoxyethyl)-N-methyl-5,6,7,8-tetrahydro-1,6-naphthyridin-2-amine]: less than 1000 nM; `O=C(CN1CCc2nc(N3CCCCC3)ncc2C1)N1CCN(C2CCC2)CC1` [Compound 155, 6-[2-(4-cyclobutylpiperazin-1-yl)-2-oxoethyl]-2-piperidin-1-yl-5,6,7,8-tetrahydropyrido[4,3-d]pyrimidine]: less than 1000 nM.

Turning to `CC(O)Cc1ccc2c(c1)CCN(CC(=O)N1CCN(C3CCC3)CC1)C2` (stereo not shown) [Compound 250, 1-{2-[2-(4-cyclobutylpiperazin-1-yl)-2-oxoethyl]-1,2,3,4-tetrahydroisoquinolin-6-yl}propan-2-ol], the inhibitory constant (Ki) is less than 1000 nM.

Staying with this assay, now noted: assay of Example 7; "*" in Ki of Table II.
Regarding `CCCc1ccc(-c2nc3c(s2)CN(CC(=O)N2CCN(C4CCC4)CC2)CC3)cc1` [Compound 312, 5-[2-(4-cyclobutylpiperazin-1-yl)-2-oxoethyl]-2-(4-propylphenyl)-4,5,6,7-tetrahydro[1,3]thiazolo [5,4-c]pyridine], the inhibitory constant (Ki) is less than 1000 nM.

`CC(=O)c1cccc(-c2nc3c(s2)CN(CC(=O)N2CCN(C4CCC4)CC2)CC3)c1` [Compound 370, 1-(3-{5-[2-(4-cyclobutylpiperazin-1-yl)-2-oxoethyl]-4,5,6,7-tetrahydro[1,3]thiazolo [5,4-c]pyridin-2-yl}phenyl)ethanone]: the Ki was less than 1000 nM. `CC(C)c1cccc(-c2nc3c(s2)CN(CC(=O)N2CCN(C4CCC4)CC2)CC3)c1` [Compound 306, 5-[2-(4-cyclobutylpiperazin-1-yl)-2-oxoethyl]-2-(3-isopropylphenyl)-4,5,6,7-tetrahydro[1,3]thiazolo [5,4-c]pyridine]: the Ki is less than 1000 nM. Same read-out and setting: next, `Cc1ccc(F)c(-c2nc3c(s2)CN(CC(=O)N2CCN(C4CCC4)CC2)CC3)c1Cl` [Compound 365, 2-(2-chloro-6-fluoro-3-methylphenyl)-5-[2-(4-cyclobutylpiperazin-1-yl)-2-oxoethyl]-4,5,6,7-tetrahydro[1,3]thiazolo [5,4-c]pyridine]: less than 1000 nM; `O=C(CN1CCc2cc(-c3ccc(=O)n(CC(F)(F)F)c3)ccc2C1)N1CCN(C2CCC2)CC1` [Compound 283, 5-{2-[2-(4-cyclobutylpiperazin-1-yl)-2-oxoethyl]-1,2,3,4-tetrahydroisoquinolin-6-yl}-1-(2,2,2-trifluoroethyl)pyridin-2(1H)-one]: less than 1000 nM; `COc1ccc(Cl)cc1-c1nc2c(s1)CN(CC(=O)N1CCN(C3CCC3)CC1)CC2` [Compound 338, 2-(5-chloro-2-methoxyphenyl)-5-[2-(4-cyclobutylpiperazin-1-yl)-2-oxoethyl]-4,5,6,7-tetrahydro[1,3]thiazolo [5,4-c]pyridine]: less than 1000 nM.
